{"source": "paper PMC7091509", "about": "(Biophysical Journal, 2020)", "key": {"[1]": {"system": "first vinculin head domain (Vd1)", "assay": "AFM single-molecule force spectroscopy", "type": "binding", "settings": "for relative mechanical stability of Vd1-VBS complex / ratio of unfolding to direct unbinding (UF/UB): shear-like pulling; for relative mechanical stability of Vd1-VBS complex: AFM experiments and simulations; for ratio of unfolding to direct unbinding (UF/UB): derived from AFM experiments"}, "vinculin": {"system": "vinculin", "settings": "cited from earlier work"}, "[2]": {"molecular_target": "first vinculin head domain Vd1 (aa 1-258), SII-Vd1-ybbR (UniProt P18206)", "sequence (P18206 1-258)": "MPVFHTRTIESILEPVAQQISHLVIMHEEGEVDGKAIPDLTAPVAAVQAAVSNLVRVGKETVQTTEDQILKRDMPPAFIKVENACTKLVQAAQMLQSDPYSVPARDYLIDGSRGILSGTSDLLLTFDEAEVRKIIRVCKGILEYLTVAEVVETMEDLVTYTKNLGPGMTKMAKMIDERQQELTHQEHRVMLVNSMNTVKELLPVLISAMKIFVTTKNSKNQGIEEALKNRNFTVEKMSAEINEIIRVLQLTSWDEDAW", "assay": "AFM single-molecule force spectroscopy"}, "[3]": {"settings": "C-terminal pulling, bimodal distribution, 800 nm/s"}}, "note": "“Also recorded” adds a separate entry of the source."}
{"substance": "GEMVGQARILAQATSDLVNAIKDA [Talin VBS11]", "values": [{"measurement": "direct unbinding in experiment", "setting": "[1]; C-terminal (shear-like) pulling, 800 nm/s", "value": "almost no direct unbinding"}, {"measurement": "rupture force of high-force population", "setting": "[1]; [3]", "value": "> 60", "unit": "pN"}, {"measurement": "rupture force of low-force population", "setting": "[1]; [3]", "value": "< 60", "unit": "pN"}, {"measurement": "high-force population", "setting": "[1]; N-terminal pulling, 800 nm/s", "value": "disappeared"}, {"measurement": "unfolding pattern in AFM traces", "setting": "[1]; shear-like pulling (C-terminal; N-terminal for α-actinin), 800 nm/s", "value": "shows a population of high-force traces with multiple unfolding peaks"}, {"measurement": "relative mechanical stability of Vd1-VBS complex", "setting": "[1]", "value": "formed the most stable complex"}, {"measurement": "ratio of unfolding to direct unbinding (UF/UB)", "setting": "[1]", "value": "≈ 2"}]}
{"substance": "ILEAAKSIAAATSALVKAASAAQRE [Talin VBS58]", "values": [{"measurement": "interaction in SPOT-peptide assay", "setting": "vinculin", "value": "strong interaction"}, {"measurement": "relative mechanical stability of Vd1-VBS complex", "setting": "[1]", "value": "least stable complex; also recorded: low mechanical stability"}, {"measurement": "ratio of unfolding to direct unbinding (UF/UB)", "setting": "[1]", "value": "≈ 0.4"}]}
{"substance": "talin VBS11 peptide with C-terminal cysteine (GSGS-VBS-GSGS-C) (from UniProt Q9Y490 820-843)", "values": [{"measurement": "UF/UB (ratio of unfolding to direct unbinding)", "setting": "[2]", "value": 2}, {"measurement": "rupture force, high-force population", "setting": "[2]", "value": "> 60", "unit": "pN"}, {"measurement": "rupture force, low-force population", "setting": "[2]", "value": "< 60", "unit": "pN"}]}
{"substance": "talin VBS11 peptide with N-terminal cysteine (C-GSGS-VBS-GSGS) (from UniProt Q9Y490 820-843)", "values": [{"measurement": "UF/UB (ratio of unfolding to direct unbinding)", "setting": "[2]", "value": 0}]}
{"substance": "talin VBS58 peptide with C-terminal cysteine (GSGS-VBS-GSGS-C) (from UniProt Q9Y490 2345-2369)", "values": [{"measurement": "UF/UB (ratio of unfolding to direct unbinding)", "setting": "[2]", "value": 0.4}, {"measurement": "mean rupture force", "setting": "[2]", "value": "45 to 60", "unit": "pN"}]}
{"substance": "talin VBS58 peptide with N-terminal cysteine (C-GSGS-VBS-GSGS) (from UniProt Q9Y490 2345-2369)", "values": [{"measurement": "UF/UB (ratio of unfolding to direct unbinding)", "setting": "[2]", "value": 0}]}
